The structures appear in SMILES notation. Values joined by “and” are separate entries in the source; they are usually repeats but may differ in a detail not shown here. Equal values may be shown once.

The target of test [1] is T1, 11-beta-hydroxysteroid dehydrogenase 1 (Mus musculus, UniProt P50172). As to the kind of experiment: Inhibition of mouse 11beta-HSD1.
Test [2] concerns the target T2, 11-beta-hydroxysteroid dehydrogenase 1 (Homo sapiens, UniProt P28845). As to the kind of experiment: Inhibition of human 11beta-HSD1.
Test [3] deals with T3, 11-beta-hydroxysteroid dehydrogenase 1 (Rattus norvegicus, UniProt P16232). Nature of the test: Inhibition of rat 11beta-HSD1.
In test [4] the target is T2, 11-beta-hydroxysteroid dehydrogenase 1. As to the kind of experiment: Inhibition of human 11beta-HSD1 using steroid as substrate incubated for 20 to 30 mins by microplate fluorimeter analysis.
Test [5] deals with T1, 11-beta-hydroxysteroid dehydrogenase 1. As to the kind of experiment: Inhibition of mouse 11beta-HSD1 expressed in CHO-K1 cells incubated for 24 hrs by HTRF assay. In kind it is cell-based.
Test [6] has the same target. As to the kind of experiment: Inhibition of mouse 11beta-HSD1 expressed in 3T3-L1 cells incubated for 24 hrs by HTRF assay. Format: cell-based.
For test [7] the target is unchanged. As to the kind of experiment: Inhibition of mouse 11beta-HSD1 expressed in CHO-K1 cells incubated for 3 hrs by HTRF assay. Format: cell-based.
Test [8] concerns the target T4, 11-beta-hydroxysteroid dehydrogenase type 2 (Homo sapiens, UniProt P80365).
T4 sequence (P80365 whole entry): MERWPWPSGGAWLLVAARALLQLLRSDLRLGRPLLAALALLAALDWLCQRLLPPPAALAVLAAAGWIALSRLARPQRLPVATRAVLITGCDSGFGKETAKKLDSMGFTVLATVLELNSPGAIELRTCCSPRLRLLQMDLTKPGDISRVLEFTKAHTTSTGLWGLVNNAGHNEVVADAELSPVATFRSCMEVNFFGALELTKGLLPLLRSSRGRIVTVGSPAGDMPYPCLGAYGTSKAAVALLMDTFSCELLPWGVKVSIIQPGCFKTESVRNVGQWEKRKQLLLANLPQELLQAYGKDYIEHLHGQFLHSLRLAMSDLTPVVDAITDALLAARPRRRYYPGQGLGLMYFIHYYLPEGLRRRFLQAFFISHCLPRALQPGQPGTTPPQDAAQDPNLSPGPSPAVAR
As to the kind of experiment: Inhibition of human 11beta-HSD2 incubated for 2 hrs by HPLC analysis.

Test [9] concerns the target T2, 11-beta-hydroxysteroid dehydrogenase 1. As to the kind of experiment: Inhibition of human 11beta-HSD1 in liver microsome incubated for 24 hrs by LC-MS analysis. Format: microsomes.
Test [10] has as its target T1, 11-beta-hydroxysteroid dehydrogenase 1. As to the kind of experiment: Inhibition of mouse 11beta-HSD1 in liver microsome incubated for 24 hrs by LC-MS analysis. In kind it is microsomes.
The target in test [11] is Hydroxysteroid 11-beta dehydrogenase 1 (Macaca mulatta, UniProt Q56D22). As to the kind of experiment: Inhibition of monkey 11beta-HSD1 in liver microsome incubated for 24 hrs by LC-MS analysis. In kind it is microsomes.
In test [12] the target is T3, 11-beta-hydroxysteroid dehydrogenase 1. Nature of the test: Inhibition of rat 11beta-HSD1 in kidney microsomes incubated for 20 mins by HPLC analysis. On the set-up: species or system Microsome.
Test [13] addresses 11-beta-hydroxysteroid dehydrogenase 1 (Rattus norvegicus) (UniProt P16232). As to the kind of experiment: Inhibition of rat 11beta-HSD1 in adipose tissue microsome.
In test [14] the target is T2, 11-beta-hydroxysteroid dehydrogenase 1. Nature of the test: Inhibition of human 11beta-HSD1 incubated for 30 mins by HPLC-MS/MS analysis.
In test [15] the target is T1, 11-beta-hydroxysteroid dehydrogenase 1. As to the kind of experiment: Inhibition of mouse 11beta-HSD1 incubated for 24 hrs by HTRF assay.
Test [16] has as its target T3, 11-beta-hydroxysteroid dehydrogenase 1. As to the kind of experiment: Inhibition of rat 11beta-HSD1 expressed in Leydig cells. Format: cell-based.
Test [17] is described as follows: Inhibition of rat 11beta-HSD2 expressed in Leydig cells. In kind it is cell-based.

T2 sequence (P28845 whole entry): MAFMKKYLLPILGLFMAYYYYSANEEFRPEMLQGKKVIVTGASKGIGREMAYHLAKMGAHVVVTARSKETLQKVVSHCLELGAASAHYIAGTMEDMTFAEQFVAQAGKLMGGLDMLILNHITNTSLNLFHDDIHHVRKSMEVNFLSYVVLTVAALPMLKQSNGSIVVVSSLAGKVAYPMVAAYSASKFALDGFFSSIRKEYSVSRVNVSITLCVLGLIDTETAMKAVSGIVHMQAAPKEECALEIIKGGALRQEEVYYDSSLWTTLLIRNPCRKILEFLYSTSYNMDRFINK
T1 sequence (P50172 whole entry): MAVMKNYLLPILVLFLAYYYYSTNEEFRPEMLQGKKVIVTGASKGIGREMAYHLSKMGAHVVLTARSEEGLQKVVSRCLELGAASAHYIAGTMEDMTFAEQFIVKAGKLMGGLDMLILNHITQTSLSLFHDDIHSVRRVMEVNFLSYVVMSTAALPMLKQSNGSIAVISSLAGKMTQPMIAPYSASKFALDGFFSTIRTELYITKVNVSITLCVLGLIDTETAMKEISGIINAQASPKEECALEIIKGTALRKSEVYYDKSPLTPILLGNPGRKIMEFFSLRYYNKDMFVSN
T3 sequence (P16232 whole entry): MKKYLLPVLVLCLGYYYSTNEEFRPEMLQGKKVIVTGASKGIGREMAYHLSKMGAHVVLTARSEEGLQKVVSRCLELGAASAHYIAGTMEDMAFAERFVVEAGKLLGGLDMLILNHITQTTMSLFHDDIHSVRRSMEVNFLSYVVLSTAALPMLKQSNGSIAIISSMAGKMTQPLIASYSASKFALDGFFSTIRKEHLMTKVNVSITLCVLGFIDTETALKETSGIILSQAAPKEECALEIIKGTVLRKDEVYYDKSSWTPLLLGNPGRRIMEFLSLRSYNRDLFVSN
Sequence of Hydroxysteroid 11-beta dehydrogenase 1 (Q56D22 whole entry): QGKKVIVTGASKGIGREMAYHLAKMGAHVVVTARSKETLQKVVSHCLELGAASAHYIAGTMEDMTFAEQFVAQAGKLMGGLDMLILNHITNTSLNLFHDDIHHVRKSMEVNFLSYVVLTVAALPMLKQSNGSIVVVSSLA

As to `C[C@@H]1CN(c2ccc(F)cc2C(F)(F)F)CCN1S(=O)(=O)c1cccc([C@@](C)(O)C(F)(F)F)c1` [HSD-016], the IC50 is 1 nM and 8 nM in [1]; 11 nM in [2]; 8 nM in test [3].

Turning to `O=S(=O)(Nc1nc(-c2sccc2Cl)cs1)c1cc(F)c(Br)cc1F`, in test [4], the concentration for half-maximal inhibition (IC50) came out at 63 nM.

Consider `NC(=O)C12CC3CC(CC(NC(=O)CN4CCCN(c5c(Cl)cc(Cl)cc5Cl)S4(=O)=O)(C3)C1)C2`, for which the IC50 in test [5] was 0.4 nM.

Regarding `NC(=O)C12CC3CC(CC(NC(=O)C4SCCN4S(=O)(=O)c4ccccc4F)(C3)C1)C2` (configuration not stated), the IC50 in [6] stood at 3 nM; in test [7] it was 5.2 nM.

In the case of `O=C(NC12CC3CC(CC(C3)C1)C2)C1NCCS1` (configuration not stated), the midpoint of inhibition in test [7], the IC50, lay at 2130 nM.

The compound `O=C(Cc1csc(NS(=O)(=O)c2c(Cl)cc(Cl)cc2Cl)n1)N1CCOCC1` returned an IC50 in test [4] of 335 nM.

Regarding `O=C(O[C@@H]1Cc2c(O)cc(O)cc2O[C@@H]1c1cc(O)c(O)c(O)c1)c1cc(O)c(O)c(O)c1` [EPIGALOCATECHIN GALLATE], the IC50 in [8] was found to be 20900 nM.

With `CN(CC1(C(=O)NC23CC4CC(C2)CC(C(N)=O)(C4)C3)CC1)S(=O)(=O)c1ccccc1F`, the IC50 turned out to be 0.02 nM in test [9], 2.8 nM in test [10] and 2.43 nM in test [11].

Compound `C[C@@H](c1ccc(-c2ccn(C)c(=O)c2)cc1)N1CC[C@](CC(C)(C)O)(c2ccccc2)OC1=O` gave an IC50 in [1] of 4.3 nM.

Turning to `Cc1nc(NS(=O)(=O)c2ccc(Cl)cc2Cl)sc1CC(Cl)(Cl)Cl`, the midpoint of inhibition in test [4], the IC50, lay at 55 nM.

Take `O=S(=O)(c1ccccc1)N1CCN(c2ncccc2C(F)(F)F)CC1`: the IC50 in test [2] came to 61 nM.

In the case of `Oc1ccc(/C=C/c2cc(O)cc(O)c2)cc1` [RESVERATROL], the IC50 in test [12] was 35200 nM; in test [13] it was 1000 nM.

For the compound `CC1=C2[C@H](C)[C@@H](C)O[C@]23O[C@H](C)[C@@H](C)O[C@@]3(O)CC1=O`, the half-maximal inhibitory concentration (IC50) in [14] came to 9070 nM.

`O=C(CN1C(C(=O)c2ccccc2)=C(O)c2ccccc2S1(=O)=O)c1ccccc1` had a 50% inhibitory concentration (IC50) in [15] of 210 nM.

With `O=C1/C(=C\c2ccccc2C(F)(F)F)CCC/C1=C\c1ccccc1C(F)(F)F`, the IC50 in test [16] was 100 nM; in [17] it was greater than 100000 nM.
